The values that follow come from US20090143421A1, “USE OF 2-BENZOYL-IMIDAZOPYRIDINES IN THERAPEUTICS” (SANOFI-AVENTIS, priority 2006, published 2009).

The test system of assay [1] is human NOT receptor. Description: binding to the human NOT receptor by SPR (BIACORE S51). The settings on record: immobilized GST-NOT whole protein and NOT ligand-binding domain, 3.75 to 0.1 μM, 4° C. As to the method:
Evaluation of the Binding to the Human NOT Receptor
The direct binding between compounds of the invention and the human NOT receptor was evaluated using SPR (surface plasmon resonance) technology. In this assay, the protein is immobilized covalently to the matrix and the molecule to be studied is injected into the chamber containing the sensor chip. The signal is directly proportional to the amount of product bound to the protein. The binding assays were carried out in a BIACORE S51 instrument (Biacore Inc., Piscataway N.J.). The GST-NOT (NOT-FL) whole protein was provided by Invitrogen (PV3265). The NOT ligand-binding domain (His-Thr-NOT 329-598) was expressed and purified as described in Nature 423, 555-560. The two proteins, diluted to a concentration of 20 μg/ml in an acetate buffer, pH 5.0, containing 5 mM of DTT, were immobilized on a carboxymethyl 5′ dextran surface (CM5 sensor chip, Biacore Inc.) by amine coupling according to the protocol recommended by Biacore, elution being carried with an HBS-N buffer (10 mM HEPES, 0.15 M NaCl, 3 mM EDTA, pH 7.4). Approximately 10000-15000 resonance units (RU) of the proteins are captured on the surface of the CM5 sensor chip. […] The dissociation was recorded for 5 minutes without any other procedure for regenerating the surface. […]

Assay [2] addresses T1, mouse Nurrl receptor (Mus musculus, UniProt Q06219).
T1 construct: a cell line (N2A) endogenously expressing the mouse Nurrl receptor; host or cells: Neuro-2A (N2A) mouse neuroblastoma cells stably transfected with 8NBRE-luciferase
The assay is described as follows: in vitro activity on N2A cells (NBRE-luciferase reporter). In kind it is cell-based. The note with it: N2A-8NBRE-luciferase cells, 24 hours incubation with the products. The method, then: Evaluation of the in vitro Activity on N2A Cells
Assays consisted in measuring the in vitro activity of the compounds of the invention on a cell line (N2A) endogenously expressing the mouse Nurrl receptor and stably transfected with the NOT binding response element (NBRE) coupled to the luciferase reporter gene. The EC50 values are between 0.01 and 1000 nM. The assays were carried out according to the procedure described below.
The Neuro-2A cell line comes from a standard commercial source (ATCC) . The Neuro-2A clone was obtained from a spontaneous tumor originating from an A albino mouse strain, by R. J Klebe et al. This Neuro-2A line is subsequently stably transfected with 8NBRE-luciferase. The N2A-8NBRE cells are cultured until confluence in 75 cm^2 culture flasks containing DMEM supplemented with 10% of fetal calf serum, 4.5 g/l of glucose and 0.4 mg/ml of geneticin. After a week of culture, the cells are recovered with 0.25% trypsin for 30 seconds and then resuspended in DMEM without phenol red, containing 4.5 g/l of glucose and 10% of Hyclone delipidized serum, and deposited into transparent-bottom 96-well white plates. The cells are deposited at a rate of 60 000 per well in 75 μl for 24 hours before the addition of the products. […] The plates are subsequently measured in a luminescence counter for microplates after having been sealed with an adhesive film. […]

Counter-ions that a name gives are not always drawn.

T1 sequence (Q06219 whole entry): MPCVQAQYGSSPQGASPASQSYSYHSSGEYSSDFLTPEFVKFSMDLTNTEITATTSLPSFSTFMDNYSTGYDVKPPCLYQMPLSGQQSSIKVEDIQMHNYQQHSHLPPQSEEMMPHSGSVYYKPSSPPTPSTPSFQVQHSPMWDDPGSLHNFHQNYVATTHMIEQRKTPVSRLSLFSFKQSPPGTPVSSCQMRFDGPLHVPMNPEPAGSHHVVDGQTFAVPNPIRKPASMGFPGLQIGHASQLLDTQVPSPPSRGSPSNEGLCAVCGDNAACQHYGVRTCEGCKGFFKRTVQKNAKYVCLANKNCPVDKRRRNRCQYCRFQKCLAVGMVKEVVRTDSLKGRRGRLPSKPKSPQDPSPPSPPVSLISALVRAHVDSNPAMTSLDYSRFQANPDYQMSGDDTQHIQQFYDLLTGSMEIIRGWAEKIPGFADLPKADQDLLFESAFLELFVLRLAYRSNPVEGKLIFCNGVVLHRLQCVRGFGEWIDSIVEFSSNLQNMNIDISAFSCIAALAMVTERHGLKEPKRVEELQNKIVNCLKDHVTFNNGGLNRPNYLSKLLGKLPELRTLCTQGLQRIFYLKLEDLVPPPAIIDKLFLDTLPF

Take `O=C(c1ccccc1)c1cn2cc(Cl)ccc2n1` [Compound 3, (6-Chloroimidazo[1,2-a]Pyridin-2-yl)-(Phenyl)Methanone Hydrobromide (1:1)]: the “affinity (classified by maximum binding level and kinetic parameters)” value in assay [1] was “high affinity”. Turning to `Cc1ccn2cc(C(=O)c3ccccc3)nc2c1` [Compound 6, (7-methylimidazo[1,2-a]pyridin-2-yl)(phenyl)methanone], in assay [2], it took 1.2 nM to reach a half-maximal effect (EC50). In assay [1], the “affinity (classified by maximum binding level and kinetic parameters)” value is given as “medium affinity”. Take `O=C(c1ccccc1)c1cn2ccccc2n1` [Compound 7, (imidazo[1,2-a]pyridin-2-yl)(phenyl)methanone]: the EC50 (as a rule, the concentration giving half of the maximal effect) in assay [2] came out at 31 nM.
